In the supplement of paper PMC10307832:

Legend:
Test in all cases: relative viability (nuclei count vs DMSO), 5 days (fraction); higher = more cells survive
Bexarotene + Luminespib = compound: C=C(c1ccc(C(=O)O)cc1)c1cc2c(cc1C)C(C)(C)CCC2(C)C [Bexarotene] + CCNC(=O)c1noc(-c2cc(C(C)C)c(O)cc2O)c1-c1ccc(CN2CCOCC2)cc1 [Luminespib] (partner 0.01 µM)
How it was run: (§1)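 Relative viability was taken as the ratio of nuclei in treated wells to nuclei in vehicle wells. Lung cancer cell lines in 1536-well plates received compounds by pin tool one day after seeding, either one drug alone or a fixed anchor-drug dose plus five library-drug doses (not always all listed) in √10 steps. Nuclei were counted on 4× images after 5 days of treatment, and values are medians of duplicate plates.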

Bexarotene + Foretinib = compound: C=C(c1ccc(C(=O)O)cc1)c1cc2c(cc1C)C(C)(C)CCC2(C)C [Bexarotene] + COc1cc2c(Oc3ccc(NC(=O)C4(C(=O)Nc5ccc(F)cc5)CC4)cc3F)ccnc2cc1OCCCN1CCOCC1 [Foretinib] (partner 0.25 µM)
How it was run: as §1

Bexarotene + Tozasertib = compound: C=C(c1ccc(C(=O)O)cc1)c1cc2c(cc1C)C(C)(C)CCC2(C)C [Bexarotene] + Cc1cc(Nc2cc(N3CCN(C)CC3)nc(Sc3ccc(NC(=O)C4CC4)cc3)n2)n[nH]1 [Tozasertib] (partner 0.1 µM)
How it was run: as §1

Bexarotene + AZD7762 = compound: C=C(c1ccc(C(=O)O)cc1)c1cc2c(cc1C)C(C)(C)CCC2(C)C [Bexarotene] + NC(=O)Nc1cc(-c2cccc(F)c2)sc1C(=O)N[C@H]1CCCNC1 [AZD7762] (partner 0.2 µM)
How it was run: as §1

Cell Line | relative viability (Bexarotene + Luminespib; first compound 0.08 µM) | relative viability (Bexarotene + Luminespib; first compound 0.253 µM) | relative viability (Bexarotene + Luminespib; first compound 0.8 µM) | relative viability (Bexarotene + Luminespib; first compound 2.53 µM) | relative viability (Bexarotene + Luminespib; first compound 8 µM) | relative viability (Bexarotene + Foretinib; first compound 0.08 µM) | relative viability (Bexarotene + Foretinib; first compound 0.253 µM) | relative viability (Bexarotene + Foretinib; first compound 0.8 µM) | relative viability (Bexarotene + Foretinib; first compound 2.53 µM) | relative viability (Bexarotene + Foretinib; first compound 8 µM) | relative viability (Bexarotene + Tozasertib; first compound 0.08 µM) | relative viability (Bexarotene + Tozasertib; first compound 0.253 µM) | relative viability (Bexarotene + Tozasertib; first compound 0.8 µM) | relative viability (Bexarotene + Tozasertib; first compound 2.53 µM) | relative viability (Bexarotene + Tozasertib; first compound 8 µM) | relative viability (Bexarotene + AZD7762; first compound 0.08 µM) | relative viability (Bexarotene + AZD7762; first compound 0.253 µM) | relative viability (Bexarotene + AZD7762; first compound 0.8 µM) | relative viability (Bexarotene + AZD7762; first compound 2.53 µM) | relative viability (Bexarotene + AZD7762; first compound 8 µM)
NCI-H2085 | 0.451 | 0.556 | 0.374 | 0.457 | 0.378 | 0.963 | 0.692 | 0.804 | 0.862 | 0.94 | 0.865 | 0.834 | 0.728 | 0.771 | 0.767 | 0.868 | 0.92 | 0.803 | 0.789 | 0.815
NCI-H2087 | 0.174 | 0.169 | 0.175 | 0.139 | 0.142 | 1.3 | 1.1 | 1.12 | 0.982 | 1.03 | 0.254 | 0.314 | 0.211 | 0.179 | 0.258 | 1.33 | 1.3 | 1.2 | 1.35 | 1.16
NCI-H2126 | 0.929 | 0.843 | 0.924 | 0.916 | 0.823 | 0.971 | 1.2 | 1.1 | 1.22 | 1.07 | 0.881 | 0.869 | 0.793 | 0.818 | 0.829 | 1.07 | 0.971 | 0.916 | 0.994 | 1.02
NCI-H2170 | 0.835 | 0.697 | 0.721 | 0.464 | 0.695 | 1.03 | 1.03 | 0.983 | 0.922 | 0.977 | 0.729 | 0.631 | 0.654 | 0.63 | 0.614 | 0.877 | 0.796 | 0.812 | 0.775 | 0.735
NCI-H2342 | 0.709 | 0.675 | 0.747 | 0.873 | 0.661 | 1.01 | 1.02 | 1.09 | 1.12 | 1.05 | 0.552 | 0.57 | 0.429 | 0.473 | 0.512 | 0.545 | 0.5 | 0.494 | 0.488 | 0.718
NCI-H2347 | 0.507 | 0.255 | – | 0.379 | 0.22 | 0.878 | 0.783 | 0.703 | 0.882 | 1.09 | 0.625 | 0.668 | – | 0.585 | 0.623 | 0.794 | 0.86 | 0.688 | 0.691 | 0.754
NCI-H2405 | 0.775 | 0.663 | 0.539 | 0.703 | 0.625 | 1.17 | 1.05 | 0.758 | 1.05 | 1.02 | 0.786 | 0.752 | 0.54 | 0.759 | 0.715 | 0.887 | 0.681 | 0.711 | 0.761 | 0.801
NCI-H3122 | 0.0956 | 0.0599 | 0.0864 | 0.0982 | 0.0732 | 0.99 | 0.988 | 0.957 | 0.9 | 0.975 | 0.431 | 0.492 | 0.425 | 0.471 | 0.476 | 1.05 | 1 | 0.944 | 0.968 | 1.13
PC-3 [JPC-3] | 0.645 | 0.618 | 0.635 | 0.775 | 0.616 | 1.13 | 0.949 | 0.941 | 0.99 | 0.891 | 0.905 | 0.889 | 0.758 | 0.862 | 0.755 | 0.958 | 0.705 | 0.785 | 0.651 | 0.709
PC-14 | 0.17 | 0.178 | 0.157 | 0.162 | 0.279 | 1.12 | 1.08 | 0.973 | 1.01 | 0.934 | 0.626 | 0.778 | 0.649 | 0.576 | 0.66 | 0.357 | 0.436 | 0.415 | 0.299 | 0.338
RERF-LC-KJ | 1.17 | 1.23 | 1.1 | 1.1 | 1.07 | 0.839 | 0.823 | 0.715 | 0.795 | 0.777 | 0.459 | 0.585 | 0.415 | 0.467 | 0.542 | 0.97 | 0.918 | 0.873 | 1.03 | 0.849
SW 900 | 0.167 | 0.17 | 0.148 | 0.189 | 0.163 | 0.991 | 0.881 | 0.901 | 1 | 0.862 | 0.559 | 0.617 | 0.589 | 0.498 | 0.431 | 0.652 | 0.511 | 0.453 | 0.518 | 0.454
